Key:
Settings in all cases: treatment: drug alone; 5 days
[1] = tested on: CAKI-1; test: GI50, drug alone; higher = less potent
Procedure: (§1)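 Primary HTS: 8 RCC cell lines treated with 8 doses (up to 10 uM) of each library drug alone for 5 days; viability read by CellTiter-Glo and normalised to DMSO. GI50 was fitted with XLfit (4-parameter), AUC is the area under the dose-response curve, and minimum viability is the lowest fraction of DMSO viability across doses.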

[2] = tested on: A498; test: GI50, drug alone; higher = less potent
Procedure: as §1

[3] = tested on: ACHN; test: GI50, drug alone; higher = less potent
Procedure: as §1

[4] = tested on: TK-10; test: GI50, drug alone; higher = less potent
Procedure: as §1

[5] = tested on: SN12C; test: GI50, drug alone; higher = less potent
Procedure: as §1

[6] = tested on: UO-31; test: GI50, drug alone; higher = less potent
Procedure: as §1

[7] = tested on: 786-O; test: GI50, drug alone; higher = less potent
Procedure: as §1

[8] = tested on: 769-P; test: GI50, drug alone; higher = less potent
Procedure: as §1

[9] = tested on: CAKI-1; test: AUC of dose-response viability curve, drug alone (arbitrary (AUC of normalised viability)); higher = less growth inhibition
Procedure: as §1

[10] = tested on: A498; test: as above
Procedure: as §1

[11] = tested on: ACHN; test: as above
Procedure: as §1

[12] = tested on: TK-10; test: as above
Procedure: as §1

[13] = tested on: SN12C; test: as above
Procedure: as §1

[14] = tested on: UO-31; test: as above
Procedure: as §1

[15] = tested on: 786-O; test: as above
Procedure: as §1

[16] = tested on: 769-P; test: as above
Procedure: as §1

[17] = tested on: CAKI-1; test: minimum viability across doses, drug alone, relative to DMSO (fraction); higher = less growth inhibition
Procedure: as §1

[18] = tested on: A498; test: as above
Procedure: as §1

[19] = tested on: ACHN; test: as above
Procedure: as §1

[20] = tested on: TK-10; test: as above
Procedure: as §1

[21] = tested on: SN12C; test: as above
Procedure: as §1

[22] = tested on: UO-31; test: as above
Procedure: as §1

[23] = tested on: 786-O; test: as above
Procedure: as §1

[24] = tested on: 769-P; test: as above
Procedure: as §1

| SMILES | GI50, drug alone [1] [nM] | GI50, drug alone [2] [nM] | GI50, drug alone [3] [nM] | GI50, drug alone [4] [nM] | GI50, drug alone [5] [nM] | GI50, drug alone [6] [nM] | GI50, drug alone [7] [nM] | GI50, drug alone [8] [nM] | AUC of dose-response viability curve [9] | AUC of dose-response viability curve [10] | AUC of dose-response viability curve [11] | AUC of dose-response viability curve [12] | AUC of dose-response viability curve [13] | AUC of dose-response viability curve [14] | AUC of dose-response viability curve [15] | AUC of dose-response viability curve [16] | minimum viability across doses [17] | minimum viability across doses [18] | minimum viability across doses [19] | minimum viability across doses [20] | minimum viability across doses [21] | minimum viability across doses [22] | minimum viability across doses [23] | minimum viability across doses [24] |
| --- | --- | --- | --- | --- | --- | --- | --- | --- | --- | --- | --- | --- | --- | --- | --- | --- | --- | --- | --- | --- | --- | --- | --- | --- |
| c1cncc(CN2CCC(n3ncc4c(N5CCOCC5)nc(-c5ccc6[nH]ccc6c5)nc43)CC2)c1 [WAY-600] | 624 | 5840 | 689 | 744 | 1900 | 1150 | 372 | 2040 | 2.23 | 4.54 | 2.32 | 2.23 | 2.51 | 3.04 | 1.79 | 2.73 | 0.0276 | 0.0996 | 0.0599 | 0.0825 | 0.164 | 0.00348 | 0.00124 | 0.0444 |
| COc1cc2ncnc(Nc3ccc(O)c(Br)c3)c2cc1OC [WHI-P154] | 6600 | > 10000 | 1510 | 2480 | > 10000 | > 10000 | > 10000 | > 10000 | 3.22 | 5.3 | 2.49 | 2.33 | 3.48 | 6.61 | 3.09 | 3.27 | 0.351 | 0.955 | 0.27 | 0.435 | 0.789 | 1.1 | 0.594 | 0.553 |
| C[C@H](NC(=O)/C(C#N)=C/c1cccc(Br)n1)c1ccccc1 [WP1066] | 8920 | > 10000 | 6700 | > 10000 | > 10000 | 7860 | 4470 | 5250 | 3.38 | 4.19 | 3.23 | 3.62 | 3.23 | 4.12 | 3.07 | 3.44 | 0.371 | 0.986 | 0.13 | 0.932 | 0.581 | 0.00632 | 0.015 | 0.0246 |
| CCC[C@H](NC(=O)/C(C#N)=C/c1cccc(Br)n1)c1ccccc1 [WP1130] | 4520 | 5120 | 4370 | 4100 | 4460 | 8040 | 1540 | 4250 | 3.18 | 3.33 | 3.26 | 2.56 | 2.97 | 3.72 | 2.24 | 3.17 | 0.0261 | 0.0682 | 0.00429 | 0.0704 | 0.0172 | 0.0144 | 0.00591 | 0.0147 |
| COC(=O)Nc1ccc(-c2nc(N3CCOCC3)c3cnn(C4CCN(C(=O)OC)CC4)c3n2)cc1 [WYE-354] | 1260 | 6590 | 611 | 1570 | 1890 | 2570 | 476 | 2270 | 2.49 | 3.73 | 2.21 | 2.35 | 2.54 | 3.63 | 1.9 | 2.75 | 0.127 | 0.409 | 0.167 | 0.293 | 0.274 | 0.0127 | 0.346 | 0.165 |
| COC(=O)Nc1ccc(-c2nc(N3CCOCC3)c3cnn(C4CCN(Cc5cccnc5)CC4)c3n2)cc1 [WYE-687] | 577 | 4610 | 551 | 501 | 996 | 581 | 1480 | 1590 | 2.23 | 3.76 | 2.34 | 2.1 | 2.45 | 2.83 | 2.92 | 2.67 | 0.075 | 0.351 | 0.0636 | 0.0981 | 0.141 | 0.00593 | 0.441 | 0.184 |
| C=CC(=O)Nc1cccc(Oc2nc(Nc3ccc(N4CCN(C)CC4)cc3)ncc2Cl)c1 [WZ3146] | 958 | 9890 | 496 | 504 | 2340 | 2600 | 1450 | 1900 | 2.62 | 3.49 | 2.34 | 2.07 | 2.85 | 3.76 | 2.27 | 2.71 | 0.0135 | 0.452 | 0.0569 | 0.0399 | 0.0769 | 0.0177 | 0.046 | 0.146 |
| C=CC(=O)Nc1cccc(Oc2nc(Nc3ccc(N4CCN(C)CC4)cc3OC)ncc2Cl)c1 [WZ4002] | 3380 | > 10000 | 845 | 1190 | 4510 | 8030 | > 10000 | > 10000 | 2.96 | 4.01 | 2.38 | 2.42 | 2.87 | 3.99 | 2.59 | 2.97 | 0.385 | 0.796 | 0.0645 | 0.0574 | 0.151 | 0.0165 | 0.547 | 0.576 |
| C=CC(=O)Nc1cccc(Sc2nc(Nc3ccc(N4CCN(C)CC4)cc3)ncc2Cl)c1 [WZ8040] | 2310 | 9250 | 1280 | 2090 | 4060 | 8210 | 2910 | 2960 | 2.51 | 3.77 | 2.45 | 2.42 | 2.85 | 3.39 | 2.46 | 2.81 | 0.00227 | 0.282 | 0.0112 | 0.024 | 0.00541 | 0.0196 | 0.00441 | 0.0235 |
| COC[C@H]1OC(=O)c2coc3c2[C@@]1(C)C1=C(C3=O)[C@@H]2CCC(=O)[C@@]2(C)C[C@@H]1OC(C)=O [Wortmannin] | 2420 | 83.3 | 98.1 | > 10000 | 83.5 | > 10000 | 49.3 | > 10000 | 2.45 | 3.03 | 2.78 | 3.1 | 2.78 | 2.58 | 1.99 | 3.15 | 0.301 | 0.421 | 0.426 | 0.725 | 0.387 | 0.643 | 0.00957 | 0.55 |
| Cc1ccc(S(=O)(=O)Nc2nc3ccccc3nc2Nc2ccc3nsnc3c2)cc1 [XL147] | > 10000 | > 10000 | > 10000 | > 10000 | > 10000 | > 10000 | > 10000 | > 10000 | 3.82 | 3.61 | 3.19 | 3.52 | 3.52 | 4.38 | 3.2 | 3.3 | 1.03 | 0.933 | 0.811 | 0.902 | 0.92 | 1.13 | 0.768 | 0.884 |
| COc1cc2nccc(Oc3ccc(NC(=O)C4(C(=O)Nc5ccc(F)cc5)CC4)cc3)c2cc1OC [XL-184 free base (Cabozantinib)] | 4710 | > 10000 | 1340 | 4140 | 5270 | > 10000 | 5690 | > 10000 | 3.2 | 3.95 | 2.25 | 2.91 | 2.92 | 3.88 | 3.06 | 3.39 | 0.116 | 0.805 | 0.221 | 0.102 | 0.279 | 0.675 | 0.222 | 0.557 |
| COCC[n+]1c2c(n(Cc3cnccn3)c1C)C(=O)c1ccccc1C2=O [YM155] | 12.5 | 12.4 | 13.3 | 27.7 | 11.3 | 25.6 | > 10000 | 14.5 | 0.655 | 0.68 | 0.648 | 1.14 | 0.567 | 0.852 | 0.165 | 0.736 | 0.00636 | 0.0106 | 0.00196 | 0.0341 | 0.00269 | 0.00519 | 0.00377 | 0.00858 |
| FC(F)c1nc2ccccc2n1-c1nc(N2CCOCC2)nc(N2CCOCC2)n1 [ZSTK474] | 431 | 2170 | 699 | 547 | 1230 | 1450 | 299 | 1090 | 2.12 | 2.84 | 2.36 | 2.17 | 2.48 | 2.73 | 1.95 | 2.38 | 0.109 | 0.0458 | 0.0879 | 0.158 | 0.172 | 0.0171 | 0.0739 | 0.127 |
| O=C(O)c1ccc2c(c1)nc(Nc1cccc(Cl)c1)c1ccncc12 [cx-4945 (Silmitasertib)] | 3970 | > 10000 | 8870 | > 10000 | > 10000 | > 10000 | 5230 | > 10000 | 3.07 | 4.21 | 3.2 | 3.01 | 3.06 | 4.43 | 2.33 | 3.12 | 0.0814 | 0.956 | 0.238 | 0.634 | 0.681 | 0.541 | 0.259 | 0.679 |

Source: the supplement of paper PMC8149375
